Measurements as given in ChEMBL document CHEMBL5465560, “Selectivity Literature for EUbOPEN Chemogenomic Library” (2024).

Tests used:
[1] = target: Cyclin-dependent kinase 15 (Homo sapiens) (UniProt Q96Q40); experiment: Selectivity interaction (KinomeScan (DiscoverX)) EUB0000666a CDK15; conditions: at 10 µM
[2] = target: Casein kinase II subunit alpha (Homo sapiens, UniProt P68400); conditions: at 10 µM
[3] = target: T1, Megakaryocyte-associated tyrosine-protein kinase (Homo sapiens) (UniProt P42679); experiment: Selectivity interaction (KinomeScan (DiscoverX)) EUB0000595a MATK; conditions: at 10 µM
T1 sequence (whole entry): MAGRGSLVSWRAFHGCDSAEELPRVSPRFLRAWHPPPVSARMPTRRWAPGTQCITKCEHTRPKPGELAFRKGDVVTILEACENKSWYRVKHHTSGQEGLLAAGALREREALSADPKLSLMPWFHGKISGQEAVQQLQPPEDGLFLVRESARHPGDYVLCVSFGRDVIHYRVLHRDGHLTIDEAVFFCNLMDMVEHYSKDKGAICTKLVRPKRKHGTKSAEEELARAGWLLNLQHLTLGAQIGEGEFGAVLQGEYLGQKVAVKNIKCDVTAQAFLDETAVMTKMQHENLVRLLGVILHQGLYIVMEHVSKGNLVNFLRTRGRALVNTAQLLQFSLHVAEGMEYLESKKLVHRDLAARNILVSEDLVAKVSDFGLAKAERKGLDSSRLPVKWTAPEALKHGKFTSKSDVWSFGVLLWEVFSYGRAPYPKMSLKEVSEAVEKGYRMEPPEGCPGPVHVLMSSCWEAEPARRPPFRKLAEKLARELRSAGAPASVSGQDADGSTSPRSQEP

[4] = target: Dual specificity tyrosine-phosphorylation-regulated kinase 1B (Homo sapiens, UniProt Q9Y463); experiment: Selectivity interaction (KinomeScan (DiscoverX)) EUB0000595a DYRK1B; conditions: at 10 µM
[5] = target: Fibroblast growth factor receptor 4 (Homo sapiens, UniProt P22455); experiment: Selectivity interaction (Ambit KINOMEscan and KiNATiv profiling in Jurkat cells) EUB0000090b FGFR4; assay type: cell-based; conditions: at 1 µM
[6] = target: Mitogen-activated protein kinase 8 (Homo sapiens, UniProt P45983); experiment: Selectivity interaction (KinomeScan (DiscoverX)) EUB0000618a MAPK8; conditions: at 10 µM
[7] = target: Casein kinase II subunit alpha' (Homo sapiens) (UniProt P19784); experiment: Selectivity interaction (KinomeScan (DiscoverX)) EUB0000618a CSNK2A2; conditions: at 10 µM
[8] = target: T2, Cyclin-G-associated kinase (Homo sapiens) (UniProt O14976); conditions: at 10 µM
T2 sequence (whole entry): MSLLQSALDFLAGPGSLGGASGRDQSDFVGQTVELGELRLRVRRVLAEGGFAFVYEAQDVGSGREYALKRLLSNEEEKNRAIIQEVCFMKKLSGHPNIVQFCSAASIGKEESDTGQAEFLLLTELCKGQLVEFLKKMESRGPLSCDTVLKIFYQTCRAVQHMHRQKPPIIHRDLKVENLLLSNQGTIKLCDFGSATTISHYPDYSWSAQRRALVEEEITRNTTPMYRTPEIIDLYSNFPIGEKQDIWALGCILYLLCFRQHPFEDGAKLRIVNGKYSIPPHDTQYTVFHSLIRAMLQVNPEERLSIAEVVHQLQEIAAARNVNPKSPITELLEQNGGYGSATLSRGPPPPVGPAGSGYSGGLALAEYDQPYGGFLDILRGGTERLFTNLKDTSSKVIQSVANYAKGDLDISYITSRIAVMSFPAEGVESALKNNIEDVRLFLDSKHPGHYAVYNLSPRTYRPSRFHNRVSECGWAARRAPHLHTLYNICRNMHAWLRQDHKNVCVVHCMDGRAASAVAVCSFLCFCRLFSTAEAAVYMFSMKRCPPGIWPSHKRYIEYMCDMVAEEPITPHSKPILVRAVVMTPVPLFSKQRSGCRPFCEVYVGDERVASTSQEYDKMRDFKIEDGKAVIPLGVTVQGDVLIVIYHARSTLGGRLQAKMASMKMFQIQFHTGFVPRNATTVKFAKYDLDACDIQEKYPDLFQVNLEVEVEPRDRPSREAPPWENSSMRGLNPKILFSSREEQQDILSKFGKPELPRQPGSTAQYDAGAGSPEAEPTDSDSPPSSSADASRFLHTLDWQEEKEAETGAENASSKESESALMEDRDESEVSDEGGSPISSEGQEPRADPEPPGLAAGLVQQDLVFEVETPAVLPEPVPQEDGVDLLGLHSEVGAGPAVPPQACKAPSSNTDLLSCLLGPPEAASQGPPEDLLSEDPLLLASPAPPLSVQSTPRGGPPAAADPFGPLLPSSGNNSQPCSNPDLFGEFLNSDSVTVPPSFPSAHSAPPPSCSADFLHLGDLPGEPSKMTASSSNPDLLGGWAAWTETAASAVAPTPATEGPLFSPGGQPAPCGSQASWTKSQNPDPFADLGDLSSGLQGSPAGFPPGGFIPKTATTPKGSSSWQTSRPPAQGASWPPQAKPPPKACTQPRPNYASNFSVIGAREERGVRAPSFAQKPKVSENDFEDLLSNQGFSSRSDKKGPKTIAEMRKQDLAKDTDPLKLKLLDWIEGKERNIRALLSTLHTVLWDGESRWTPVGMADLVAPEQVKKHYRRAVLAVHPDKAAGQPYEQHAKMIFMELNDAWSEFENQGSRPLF

Focal adhesion kinase 1 = Focal adhesion kinase 1 (Homo sapiens, UniProt Q05397)
[9] = target: Serine/threonine-protein kinase OSR1 (Homo sapiens) (UniProt O95747); experiment: Selectivity interaction (ActivX KiNativ screen (ex vivo kinase selectivity in human PBMCs)) EUB0001619a OXSR1; assay type: cell-based; conditions: PBMC, at 1 µM
[10] = target: T3, Serine/threonine-protein kinase NLK (Homo sapiens) (UniProt Q9UBE8); experiment: Selectivity interaction (KinomeScan (DiscoverX)) EUB0001619a NLK; conditions: at 1 µM
T3 sequence (whole entry): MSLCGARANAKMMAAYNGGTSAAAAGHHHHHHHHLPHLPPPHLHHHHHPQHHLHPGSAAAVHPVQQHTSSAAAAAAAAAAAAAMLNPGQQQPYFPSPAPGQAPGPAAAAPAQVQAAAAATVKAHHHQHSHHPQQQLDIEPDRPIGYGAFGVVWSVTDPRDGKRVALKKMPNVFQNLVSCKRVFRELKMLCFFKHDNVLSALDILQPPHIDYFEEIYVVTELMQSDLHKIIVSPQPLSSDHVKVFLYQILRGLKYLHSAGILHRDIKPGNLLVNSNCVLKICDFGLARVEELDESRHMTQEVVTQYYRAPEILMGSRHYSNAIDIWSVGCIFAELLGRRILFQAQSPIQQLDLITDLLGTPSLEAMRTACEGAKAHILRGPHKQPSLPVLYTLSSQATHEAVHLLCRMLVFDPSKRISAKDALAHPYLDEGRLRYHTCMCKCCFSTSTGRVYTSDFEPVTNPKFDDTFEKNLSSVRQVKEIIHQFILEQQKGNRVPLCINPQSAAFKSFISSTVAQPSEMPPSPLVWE

Sequence of Casein kinase II subunit alpha (P68400 whole entry, looked up): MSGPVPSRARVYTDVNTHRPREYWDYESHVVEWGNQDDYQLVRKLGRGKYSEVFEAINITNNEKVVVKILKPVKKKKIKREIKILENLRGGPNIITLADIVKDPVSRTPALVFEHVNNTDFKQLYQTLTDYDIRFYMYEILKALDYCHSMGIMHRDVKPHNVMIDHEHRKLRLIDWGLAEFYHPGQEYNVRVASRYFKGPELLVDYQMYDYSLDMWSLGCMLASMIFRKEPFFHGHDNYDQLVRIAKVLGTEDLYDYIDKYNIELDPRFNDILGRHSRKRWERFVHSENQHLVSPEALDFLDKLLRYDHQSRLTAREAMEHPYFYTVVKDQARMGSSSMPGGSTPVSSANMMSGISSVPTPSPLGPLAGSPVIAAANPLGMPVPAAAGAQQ
Sequence of Dual specificity tyrosine-phosphorylation-regulated kinase 1B (Q9Y463 whole entry, looked up): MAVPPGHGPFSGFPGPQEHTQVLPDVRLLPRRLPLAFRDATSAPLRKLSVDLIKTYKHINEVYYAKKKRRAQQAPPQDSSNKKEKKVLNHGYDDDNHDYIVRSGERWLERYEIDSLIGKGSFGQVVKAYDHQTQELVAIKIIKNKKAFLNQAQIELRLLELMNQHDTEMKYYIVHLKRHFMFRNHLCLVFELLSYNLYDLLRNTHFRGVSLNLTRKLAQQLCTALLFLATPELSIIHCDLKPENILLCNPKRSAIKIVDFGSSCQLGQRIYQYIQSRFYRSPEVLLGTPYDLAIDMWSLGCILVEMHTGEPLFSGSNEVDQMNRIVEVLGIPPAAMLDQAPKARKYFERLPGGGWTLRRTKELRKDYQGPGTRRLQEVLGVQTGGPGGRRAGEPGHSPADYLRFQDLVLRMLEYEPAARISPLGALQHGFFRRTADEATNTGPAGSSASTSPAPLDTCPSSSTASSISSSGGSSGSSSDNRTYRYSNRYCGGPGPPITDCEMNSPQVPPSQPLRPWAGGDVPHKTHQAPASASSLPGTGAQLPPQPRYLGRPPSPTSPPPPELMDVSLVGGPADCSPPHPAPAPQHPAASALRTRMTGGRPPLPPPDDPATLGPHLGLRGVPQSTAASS
Sequence of Cyclin-dependent kinase 15 (Homo sapiens) (Q96Q40 whole entry): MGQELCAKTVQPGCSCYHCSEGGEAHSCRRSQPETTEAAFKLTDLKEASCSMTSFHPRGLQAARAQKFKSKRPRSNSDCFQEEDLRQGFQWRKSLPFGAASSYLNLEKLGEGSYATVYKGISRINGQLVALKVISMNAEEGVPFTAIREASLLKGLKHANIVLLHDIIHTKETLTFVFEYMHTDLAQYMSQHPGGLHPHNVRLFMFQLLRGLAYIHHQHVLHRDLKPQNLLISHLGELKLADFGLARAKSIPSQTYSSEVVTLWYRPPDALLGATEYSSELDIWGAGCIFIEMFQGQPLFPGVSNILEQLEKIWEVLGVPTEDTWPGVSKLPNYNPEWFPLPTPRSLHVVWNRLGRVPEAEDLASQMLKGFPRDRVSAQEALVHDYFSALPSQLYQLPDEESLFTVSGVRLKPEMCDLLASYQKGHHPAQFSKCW
Sequence of Focal adhesion kinase 1 (Q05397 whole entry): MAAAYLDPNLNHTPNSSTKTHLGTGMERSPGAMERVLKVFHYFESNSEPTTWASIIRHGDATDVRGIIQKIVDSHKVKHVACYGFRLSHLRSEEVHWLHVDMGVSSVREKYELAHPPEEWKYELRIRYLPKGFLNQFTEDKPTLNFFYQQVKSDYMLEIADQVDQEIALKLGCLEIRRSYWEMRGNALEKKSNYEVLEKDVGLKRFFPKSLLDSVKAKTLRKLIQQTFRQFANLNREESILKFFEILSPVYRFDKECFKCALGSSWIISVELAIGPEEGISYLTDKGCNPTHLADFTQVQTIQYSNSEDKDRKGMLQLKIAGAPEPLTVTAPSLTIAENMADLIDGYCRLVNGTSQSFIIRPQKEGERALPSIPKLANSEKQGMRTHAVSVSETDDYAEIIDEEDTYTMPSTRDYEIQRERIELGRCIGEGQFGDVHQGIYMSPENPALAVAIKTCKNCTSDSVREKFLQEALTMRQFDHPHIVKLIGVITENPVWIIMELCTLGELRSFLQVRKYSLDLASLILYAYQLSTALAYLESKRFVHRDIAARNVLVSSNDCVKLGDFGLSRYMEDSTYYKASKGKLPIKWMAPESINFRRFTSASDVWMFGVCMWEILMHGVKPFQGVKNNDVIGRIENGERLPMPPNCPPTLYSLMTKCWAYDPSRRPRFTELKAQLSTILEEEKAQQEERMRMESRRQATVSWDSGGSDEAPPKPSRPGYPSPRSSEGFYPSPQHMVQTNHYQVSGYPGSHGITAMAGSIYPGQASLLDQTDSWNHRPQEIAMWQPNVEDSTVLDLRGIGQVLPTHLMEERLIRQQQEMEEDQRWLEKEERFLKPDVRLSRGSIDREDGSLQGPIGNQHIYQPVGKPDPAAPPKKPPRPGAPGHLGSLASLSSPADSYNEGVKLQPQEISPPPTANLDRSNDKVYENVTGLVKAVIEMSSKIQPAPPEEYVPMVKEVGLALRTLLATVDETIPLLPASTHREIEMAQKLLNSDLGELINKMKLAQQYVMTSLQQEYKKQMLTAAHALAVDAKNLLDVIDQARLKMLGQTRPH
Sequence of Casein kinase II subunit alpha' (Homo sapiens) (P19784 whole entry, looked up): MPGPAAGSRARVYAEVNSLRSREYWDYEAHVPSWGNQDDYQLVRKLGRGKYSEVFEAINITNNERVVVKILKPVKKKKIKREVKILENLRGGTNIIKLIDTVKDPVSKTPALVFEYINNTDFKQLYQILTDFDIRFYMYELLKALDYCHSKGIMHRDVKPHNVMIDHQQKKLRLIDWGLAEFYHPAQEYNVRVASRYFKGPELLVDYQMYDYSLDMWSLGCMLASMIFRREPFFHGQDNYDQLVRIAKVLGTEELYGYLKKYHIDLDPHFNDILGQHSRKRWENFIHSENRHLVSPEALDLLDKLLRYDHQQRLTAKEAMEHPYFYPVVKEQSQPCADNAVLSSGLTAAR
Sequence of Serine/threonine-protein kinase OSR1 (Homo sapiens) (O95747 2-527 limits assumed): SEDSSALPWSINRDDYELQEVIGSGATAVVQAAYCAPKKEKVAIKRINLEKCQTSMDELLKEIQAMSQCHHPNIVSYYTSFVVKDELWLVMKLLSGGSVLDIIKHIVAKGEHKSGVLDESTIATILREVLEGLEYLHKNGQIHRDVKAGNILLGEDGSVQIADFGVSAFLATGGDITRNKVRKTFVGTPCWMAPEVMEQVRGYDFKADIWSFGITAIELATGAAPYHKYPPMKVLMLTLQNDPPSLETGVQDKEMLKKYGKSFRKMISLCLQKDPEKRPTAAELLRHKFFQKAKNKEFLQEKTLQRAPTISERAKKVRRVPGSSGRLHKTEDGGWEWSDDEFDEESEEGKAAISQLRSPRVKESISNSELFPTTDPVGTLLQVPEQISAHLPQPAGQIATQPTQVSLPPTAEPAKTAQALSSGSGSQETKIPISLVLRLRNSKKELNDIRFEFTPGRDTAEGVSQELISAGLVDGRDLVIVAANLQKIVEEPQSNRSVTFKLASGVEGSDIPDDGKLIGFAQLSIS
Sequence of Fibroblast growth factor receptor 4 (P22455 22-802 limits assumed): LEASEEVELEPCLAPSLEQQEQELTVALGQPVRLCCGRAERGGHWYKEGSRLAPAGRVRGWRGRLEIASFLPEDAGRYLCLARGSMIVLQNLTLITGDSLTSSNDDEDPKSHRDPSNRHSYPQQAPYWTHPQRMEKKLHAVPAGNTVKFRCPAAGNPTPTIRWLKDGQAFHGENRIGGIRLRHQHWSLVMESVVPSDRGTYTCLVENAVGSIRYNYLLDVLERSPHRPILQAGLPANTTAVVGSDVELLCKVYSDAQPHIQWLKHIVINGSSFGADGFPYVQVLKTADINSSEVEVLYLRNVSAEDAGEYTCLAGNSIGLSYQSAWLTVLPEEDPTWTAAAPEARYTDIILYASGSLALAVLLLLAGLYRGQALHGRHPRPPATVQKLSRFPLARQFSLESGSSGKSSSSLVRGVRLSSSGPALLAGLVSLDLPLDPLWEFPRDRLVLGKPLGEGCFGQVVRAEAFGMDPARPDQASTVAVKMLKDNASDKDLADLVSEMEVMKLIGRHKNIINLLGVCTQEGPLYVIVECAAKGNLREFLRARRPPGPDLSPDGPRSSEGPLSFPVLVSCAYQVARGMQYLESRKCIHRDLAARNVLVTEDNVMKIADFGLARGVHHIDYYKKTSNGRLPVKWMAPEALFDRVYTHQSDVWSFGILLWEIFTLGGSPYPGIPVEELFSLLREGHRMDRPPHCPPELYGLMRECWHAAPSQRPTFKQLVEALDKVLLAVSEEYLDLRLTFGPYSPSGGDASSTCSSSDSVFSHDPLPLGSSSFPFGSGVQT
Sequence of Mitogen-activated protein kinase 8 (P45983 whole entry): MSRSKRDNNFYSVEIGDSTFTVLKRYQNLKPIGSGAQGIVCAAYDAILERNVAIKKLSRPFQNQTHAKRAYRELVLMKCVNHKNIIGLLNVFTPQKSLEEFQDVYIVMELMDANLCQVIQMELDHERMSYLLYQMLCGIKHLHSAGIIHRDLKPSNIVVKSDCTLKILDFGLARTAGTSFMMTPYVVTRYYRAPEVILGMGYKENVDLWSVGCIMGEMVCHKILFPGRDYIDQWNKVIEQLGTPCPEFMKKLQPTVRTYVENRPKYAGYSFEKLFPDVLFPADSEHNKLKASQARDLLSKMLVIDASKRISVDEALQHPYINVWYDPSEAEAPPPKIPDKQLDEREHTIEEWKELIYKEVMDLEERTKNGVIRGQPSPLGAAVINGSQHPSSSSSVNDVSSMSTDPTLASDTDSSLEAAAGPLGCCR

Q: With `O=C(NOC[C@H](O)CO)c1ccc(F)c(F)c1Nc1ccc(I)cc1F` as the compound, how does the % of control [1] read?
A: Its % of control is 78%.

Q: `CCN(CC)CCCCNc1ncc2cc(-c3cc(OC)cc(OC)c3)c(NC(=O)NC(C)(C)C)nc2n1` was tested. Which % of control [2] did it give?
A: Its % of control is 100%.

Q: For `COCC(=O)NC/C=C/c1ccc2ncnc(Nc3ccc(Oc4ccc(C)nc4)c(C)c3)c2c1` [CP-724714], which % of control [3] is on record?
A: The % of control was 100%.

Q: And the % of control [4]?
A: Its % of control is 92%.

Q: Which % of control [5] does the source give for `CN(C)C/C=C/C(=O)Nc1ccc(C(=O)N2CCCC(Nc3ncc(Cl)c(-c4c[nH]c5ccccc45)n3)C2)cc1` (stereo unspecified) here?
A: Its % of control is 86%.

Q: What does the source list for `O[C@H]1CC[C@H](Nc2ncc3nc(Nc4c(F)cc(F)cc4F)n([C@H]4CCOC4)c3n2)CC1`?
A: % of control [6]: 0%; % of control [7]: 96%

Q: `Cc1cc([C@@H](C)Nc2ccccc2C(=O)O)c2nc(N3CCOCC3)cc(=O)n2c1` [AZD-6482] was tested. Which % of control [8] did it give?
A: Its % of control is 75%.

Q: For `CCc1cccc(CC)c1NC(=O)c1nn(C)c2c1CCc1cnc(Nc3ccc(C(=O)NC4CCN(C)CC4)cc3OC(F)(F)F)nc1-2`, which IC50 (Focal adhesion kinase 1) is on record?
A: Its IC50 is greater than 10 µM.

Q: Which results are given for `N#Cc1cccc(-c2c[nH]c3ncnc(N4CCOCC4)c23)c1`?
A: % of inhibition [9]: -55%; % of control [10]: 85%
